In paper PMC6368365, “Didehydro-Cortistatin A Inhibits HIV-1 by Specifically Binding to the Unstructured Basic Region of Tat” (mBio, 2019):

Experiments:
[1] = target: T1, Trp^11 of Tat protein (Human immunodeficiency virus type 1 group M subtype B, UniProt P69697); assay: Trp fluorescence assay of recombinant Tat; assay type: binding, HIV-1; conditions: for effect on intrinsic Trp fluorescence of Tat: compound/Tat ratio of 7.5/1
T1 construct: pTatC6H-1 (NIH AIDS Reagent Program) plasmid encoding C-terminal 6xHistidine Tat1-86 (HXB3, subtype B); made in house; host or cells: E. coli BL21 (plasmid pTatC6H-1, NIH AIDS Reagent Program)
T1 sequence (P69697 whole entry): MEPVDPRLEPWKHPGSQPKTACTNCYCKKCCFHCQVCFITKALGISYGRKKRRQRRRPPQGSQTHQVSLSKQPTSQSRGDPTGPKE
Excerpt: Next, we investigated whether dCA mediated conformational changes in Tat. NMR studies have reported the fluorescence of Tat’s unique Trp^11 to be highly sensitive to conformational modifications ([2], [15]). As such, we assessed Tat fluorescence between wavelengths of 310 nm and 410 nm (Fig. 5A, left).
FIG 5 dCA stabilizes Tat structure. (A) Trp fluorescence assays. (Left) Schematic of the assay. (Center) DMSO, dCA (7.5× Tat concentration) or raltegravir (Ralt.; 7.5× Tat concentration) was incubated with Tat. The fluorescence of the Trp^11 of Tat protein was measured at the indicated wavelengths. Acrylamide (250 mM) was used as a quenching control of Tat fluorescence. (Right) Peak absorbance (λmax) versus increasing fold ratios of compounds to Tat protein. Data are representative of n = 3 independent experiments. (B) DARTS assays. Tat was incubated with DMSO or dCA, at increasing concentrations, in the presence of increasing concentrations of proteinase K (PK). […] Data are representative of n = 2 independent experiments. (C) Steady state of Tat in the presence of dCA in vivo. HeLa-CD4-LTR-Luc cells were incubated with recombinant Tat and then washed and incubated with the indicated compounds for 6 hours. […] (Left) Western blot representative of n = 4 independent experiments. MG132 was used as a positive control of Tat protection from degradation, and raltegravir was used as a negative control. (Right) Densitometry of the Tat band normalized to the actin band. Results represent the mean ± SEM from n = 4 independent experiments. Statistical significance was determined using one-way ANOVA with post hoc Tukey’s test. ns, not significant; ***, P < 0.0001; **, P < 0.001.
Recombinant Tat (2.5 μM) was incubated with different concentrations of dCA or raltegravir in a 96-well plate. The solution was excited at 280 nm, and the emission of Trp fluorescence was read from 310 to 410 nm. The background induced by the compounds alone or buffer of dilution was subtracted from the Trp signal. Acrylamide (250 mM) was used as a quencher of the fluorescence.

[2] = tested on: recombinant Tat transactivation of HIV-1 5′ LTR-luciferase; assay: Transactivation assay with recombinant Tat in HeLa-CD4-LTR-Luc cells; assay type: cell-based
Excerpt: The production of functional recombinant HIV-1 Tat in Escherichia coli is not trivial as the proper folding of Tat is extremely important for activity, and when expressed by itself, Tat agglomerates mostly because of oxidation of the cysteine residues in the cysteine region. Tat can also adhere to different surfaces and anionic polymers via its charged and hydrophobic residues ([21], [22]). We produced and purified recombinant HIV Tat HXB3 (residues 1 to 89) with a 6×His tag in the C-terminus in E. coli. For this, we have partially optimized the arginine codon usage and changed the rare AGA into codon CGT at arginine positions 7, 53, 56, and 87 of Tat (Fig. 1A). […] After Tat purification using nickel affinity chromatography followed by size exclusion filtration, Tat protein size was analyzed by SDS-PAGE followed by Coomassie blue staining (Fig. 1B). The specificity of the bands was confirmed by Western blotting using anti-Tat serum and anti-His antibody (Fig. 1B). The purity of Tat was further verified by size exclusion chromatography and high-performance liquid chromatography (HPLC) (Fig. 1C and D). We confirmed the activity of Tat by performing transactivation assays in both HeLa-CD4 cells stably expressing the HIV-1 5′ long terminal repeat (LTR) promoter driving luciferase expression (HeLa-CD4-LTR-Luc cells) ([10]) and the OM10.1 cell line model of HIV-1 latency ([23]) (Fig. 1E and F; see Fig. S2A and S2B in the supplemental material). In HeLa-CD4-LTR-Luc cells, the activity of our purified Tat was similar to the published activity of Tat obtained from the AIDS Reagent Program ([10]). In addition, denatured Tat and Tat mutated in the basic domain (Tat Mut [arginine residues mutated to alanine residues]), used as negative controls, were unable to transactivate the reporter (Fig. S2A).
FIG 1 Purity and activity of the monomeric His-tagged Tat HXB3 and analysis of its direct binding to dCA. […] Statistical significance was determined using one-way ANOVA with post hoc Tukey’s test. ns, not significant; ***, P < 0.0001; *, P < 0.01. […]

Compound	λmax of Tat Trp fluorescence ([1]; compound/Tat ratio 7.5/1, Tat alone 360 nm) [nm]	effect on intrinsic Trp fluorescence of Tat [1]	I330/350 ratio of Tat Trp fluorescence ([1]; dCA/Tat ratio of 7.5/1, Tat alone 0.73)	inhibition of recombinant Tat transactivation (luciferase) [2]
CN(C)C1CC23CCC4(O2)C(=CCC2(C)C(c5ccc6ccncc6c5)=CCC24)C=C3C(O)C1O (stereo not shown) [dCA, didehydro-cortistatin A]	350	decreased intensity of the Trp fluorescence	0.893	blocked Tat transcriptional activity in a dose-dependent manner
C[C@@](Cc1ccc(O)c(O)c1)(NN)C(=O)O.O [SCM, S-(−)-carbidopamonohydrate, reference compound]	–	–	–	no inhibitory activity
Cc1nnc(C(=O)NC(C)(C)c2nc(C(=O)NCc3ccc(F)cc3)c(O)c(=O)n2C)o1 [raltegravir, reference compound]	–	no effect on the intrinsic fluorescence of Tat	–	no inhibitory activity
